Assays:
[1] = system: 5XFAD mice; experiment: 6E10 immunohistochemical staining of amyloid plaques in 5XFAD mice after oral administration; type: in vivo, mouse; conditions: 50 mg/kg/day via drinking water, 5 weeks, 4.5-month-old female 5XFAD mice, vs vehicle
Experimental: (§1) To test the in vivo efficacy of YIAD001 and YIAD002, female 5XFAD mice (n = 25) and female wildtype mice (n = 7) were assessed at the age of 4.5 months. YIAD compounds were dissolved in DMSO and diluted in drinking water to a final concentration of 50 mg/kg/day (5% DMSO, 5% Tween) for oral administration. The three compounds, YIAD001, YIAD002, and YIAD003, were freely administered via drinking water to 4.5-month-old 5XFAD mice (n = 6 for each group) for 5 weeks. As a control, 5% DMSO, 5% Tween in drinking water was provided ad libitum to littermate 5XFAD mice (n = 7) and wildtype mice (n = 7) for 5 weeks.
(§2) After the administration period, the mice were deeply anaesthetized with 4% avertin through intraperitoneal injection and transcardially perfused with 0.9% saline. Subsequently, the mice were sacrificed for brain excision. Each collected brain was divided through the mid-sagittal section; the hippocampal and cortical regions were dissected from one half and stored at −80°C for subsequent brain lysates, while the other half was immersed in 4% paraformaldehyde (pH 7.4) for 24 h and 30% sucrose for 48 h at 4°C and subsequently deep-froze at −80°C for immunohistochemistry.
Coronal hippocampal sections of 5XFAD mice brains (35 μm) were cut with a Cryostat (Leica, CM1860) and mounted onto glass slides. Antigen retrieval was performed by submerging slides in 1% SDS and unspecific binding was blocked through incubation in 20% horse serum in PBS for 1 h at RT. Aβ deposits were visualized through immunolabeling by anti-6E10 antibody (1:200 in PBS with 5% horse serum, Biolegend 803003) and detection by fluorescent secondary antibody (1:200 in PBS, IgG Alexa 488). Brain sections were additionally stained with Hoechst 33342. Fluorescent images of the brain sections were taken on a Leica DM2500 fluorescence microscope. Amyloid plaques were quantified using Image-J software (NIH).

[2] = system: 5XFAD mice; experiment: Western blot of brain lysates of 5XFAD mice; type: in vivo, mouse; conditions: 50 mg/kg/day, 5 weeks
Experimental: as §1, §2
Isolated cortical and hippocampal tissue samples were homogenized in ice-cold RIPA buffer with protease inhibitor cocktail and phosphatase inhibitor cocktail. Lysed tissues were incubated in ice for 30 min and subsequently centrifuged at 14,000 rpm at 4°C for 30 min. The supernatants of the brain lysates were collected and soluble protein concentrations were quantified with the Pierce BCA protein assay kit (Thermo Fisher Scientific, USA).
Western blot analysis was performed to assess YIAD002-induced alterations of protein biomarkers in 5XFAD mice brain lysates. Twenty micrograms of lysate samples were loaded onto 12% tris-tricine gels, separated by SDS-PAGE, and transferred to nitrocellulose membranes. Membranes were blocked by 5% skim milk or 5% BSA in TBS-T. The following primary antibodies were used for immunoblotting: anti-6E10 for APP (1:1000, Biolegend 803003), anti-AT8 (1:1000, Invitrogen MN1020), anti-Tau (1:1000, Santa Cruz SC390476), anti-ionized calcium-binding adapter molecule (Iba1) (1:1000, CST, 17198S), anti-glial fibrillar acidic protein (GFAP) (1:2000, Milipore AB5541), anti-postsynaptic density protein 95 (PSD95) (1:1000, CST 3450S), anti-synaptophysin (1:1000, Milipore MAB5258), and anti-β-Actin (1:10,000, Milipore MAB1501). Membranes were incubated with primary antibodies at 4°C overnight and probed with HRP-conjugated IgG antibodies (1:10,000) in RT for an hour. Proteins were detected using an ECL kit (Thermo Fisher Scientific, USA). Membranes were washed with TBS-T in between steps, three times for 10 min.

[3] = target: T1, recombinant tau K18 aggregates (Homo sapiens, UniProt P10636); experiment: ThT fluorescence tau K18 disaggregation assay; type: biochemical; conditions: K18 35 μM pre-aggregated 3 days, 50 and 500 μM compound for additional 3 days; concentration of the printed value not stated
T1 construct: Recombinant tau K18 fragments, […]; made in house; host or cells: Escherichia coli BL21 (DE3)
Experimental: ThT fluorescence was used to assess the in vitro inhibition of Aβ(1–42) and disaggregation of Aβ(1–42), Aβ(1–40), Aβ(pE3-42), recombinant tau K18, and tau repeats R1, R2, R3, R4 by YIAD compounds. In house synthetic Aβ(1–42) was dissolved in DMSO (1 mM, 100% DMSO) and diluted to 20-fold in deionized water to make 50 μM Aβ(1–42) stocks (5% DMSO). YIAD compounds were first dissolved in DMSO (100 mM, 100% DMSO) and serially diluted with deionized water to make YIAD stocks with concentrations of 1, 10, 100, and 1000 μM (10% DMSO). For the Aβ(1–42) inhibition assay, monomeric Aβ(1–42) stocks and YIAD stocks were co-incubated at 37°C for 3 days. For Aβ(1–42) disaggregation assay, monomeric Aβ(1–42) stocks were preincubated at 37°C for three days to form Aβ(1–42) aggregates, and subsequently, YIAD stocks were added for an additional 3 days. For Aβ(1-40) disaggregation assays, Aβ(1–40) (50 μM, 5% DMSO) was preincubated at 37°C for 3 days to induce aggregation, and co-incubated with YIAD001 and YIAD002 for an additional 3 days. […] Prior to fluorescence intensity measurement, ThT solution (5 μM) was prepared by dissolving ThT, purchased from Sigma-Aldrich (MO, USA) in 50 mM glycine buffer (pH 8.5). To quantify the effect of inhibition and disaggregation, 25 μL of all samples and 75 μL of ThT solution were loaded into a half-area 96-well black plate in triplicate.

T1 sequence (P10636 561-689): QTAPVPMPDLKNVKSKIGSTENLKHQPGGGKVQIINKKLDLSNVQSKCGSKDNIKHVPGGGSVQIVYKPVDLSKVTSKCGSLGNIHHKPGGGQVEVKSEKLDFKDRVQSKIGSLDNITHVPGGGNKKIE

Row | SMILES | Number of 6E10-stained plaques [1] | Plaque area [1] | Cortical and hippocampal APP levels [2] | Reduction of GFAP expression ([2]; cortical lysates, vs vehicle) [%] | Cortical total tau levels ([2]; vs vehicle) | Increase of cortical PSD95 levels ([2]; vs vehicle) [%] | Increase of cortical synaptophysin levels ([2]; vs vehicle) [%] | Reduction of cortical Iba1 levels ([2]; vs vehicle) [%] | Reduction of cortical phosphorylated tau (AT8) ([2]; vs vehicle) | Reduction of K18 aggregates (disaggregation, ThT) [3] [%] | melting point [°C]
1 | CCC(C)(C)c1ccc(OCC(O)CN2CCCC2)c(C(C)(C)CC)c1.Cl (centres unmarked) [YIAD002, 1-(3-(2,4-Di-tert-pentylphenoxy)-2-hydroxypropyl)pyrrolidin-1-ium chloride] | significantly reduced | significant decrease | did not induce significant shift | 32.76 | not affected | 51.97 | 57.47 | 32.11 | 35.29% | 58.96 | 179.8 to 180.7
2 | CCC(C)(C)c1ccc(OCC(O)CN2CCOCC2)c(C(C)(C)CC)c1.Cl (centres unmarked) [YIAD001, 4-(3-(2,4-Di-tert-pentylphenoxy)-2-hydroxypropyl)morpholin-4-ium chloride] | significantly reduced |  | did not induce significant shift |  | not affected | 44.59 | 38.68 | 26.08 | did not affect | 18.06 | 192.5 to 193.1

Source: publication PMC9706920, “Aryloxypropanolamine targets amyloid aggregates and reverses Alzheimer-like phenotypes in Alzheimer mouse models” (Alzheimer's Research & Therapy, 2022)
